Like-named read-outs stand apart in the source and are kept apart here. Blank lines part the entries; values can stand above or below the molecule they belong to.
Key:
[1] = system: HDAC enzymes (HeLa nuclear extract, mixed-HDAC isoforms); assay: Fluor-de-Lys HDAC activity assay kit, HeLa nuclear extract as source of HDAC enzymes; assay type: biochemical, human; conditions: compounds at 100 µM
Method: The in vitro HDAC inhibitions of the obtained compounds were carried out with the assay kit containing mixed-HDAC isoforms. […] Therefore, the results were not fully related. However, compounds with good binding affinities should have the potential to be specific HDAC inhibitors for each isoform.
The semi-synthetic derivatives were evaluated for their ability to inhibit HDAC enzymes. Inhibition of HDAC activity in vitro was assessed using the Fluor-de-Lys HDAC activity assay kit (Biomol, Enzo Life Sciences International, Inc., Farmingdale, NY, USA). The HeLa nuclear extract provided with the kit was used as a source of HDAC enzymes for the in vitro study. TSA was used as the positive control. The HeLa nuclear extract, substrate, buffer and inhibitors were incubated. Deacetylation of the substrate was performed next by adding a developer to generate a fluorophore. The spectra Max Gemini XPS microplate spectrofluorometer (Molecular Devices, San Jose, CA, USA) was used to measure fluorescence signal with excitation at 360 nm and emission at 460 nm. A decrease in fluorescence signal indicated an inhibition of HDAC activity. Trichostatin A (TSA) was used as a positive control. All experiments were carried out in triplicate.

[2] = system: cholangiocarcinoma KKU-M213B cells; assay: MTT assay, KKU-M213B cells; assay type: cell-based, human; conditions: Homo sapiens, read-out: IC50 Values (Mean ± SD; n = 3)
Method: (§1) The MTT reduction assay was performed with non-cancer (Vero), human cervical cancer (HeLa), human colon cancer (HCT116), human breast adenocarcinoma cancer (MCF-7), and cholangiocarcinoma (H-69 […], KKU-100 and KKU-M213B) cell lines according to the previously described method. Briefly, cells were seeded in 96-well plates. The next day, cells were exposed to the selected compounds at various concentrations and incubated for 24, 48 and 72 h. After incubation, the culture medium was exchanged with 110 µL of MTT (0.5 mg/mL in PBS medium) and further incubated for 2 h. The amount of MTT formazan product was determined after dissolving in DMSO by measuring its absorbance with a microplate reader (Bio-Rad Laboratories, Hercules, CA, USA) at a test wavelength of 550 nm and a reference wavelength of 655 nm. The cell viability was expressed as a percentage of the viable cells of control culture conditions, and the IC50 values of each group were calculated.

[3] = system: Vero cells; assay: MTT assay, non-cancer Vero cells; assay type: cell-based; conditions: Chlorocebus sabaeus, read-out: IC50 Values (Mean ± SD; n = 3)
Method: as §1

[4] = system: cholangiocarcinoma KKU-100 cells; assay: MTT assay, KKU-100 cells; assay type: cell-based, human; conditions: Homo sapiens, KKU100, read-out: IC50 Values (Mean ± SD; n = 3)
Method: as §1

[5] = system: human breast adenocarcinoma cancer (MCF-7) cells; assay: MTT assay, MCF-7 cells; assay type: cell-based; conditions: Homo sapiens, MCF7, read-out: IC50 Values (Mean ± SD; n = 3)
Method: as §1

[6] = system: human cervical cancer (HeLa) cells; assay: MTT assay, HeLa cells; assay type: cell-based; conditions: Homo sapiens, read-out: IC50 Values (Mean ± SD; n = 3), HeLa cells
Method: as §1

[7] = system: H-69 cells; assay: MTT assay, H-69 cells; assay type: cell-based; conditions: Homo sapiens, NCI-H69, read-out: IC50 Values (Mean ± SD; n = 3)
Method: as §1

[8] = system: human colon cancer (HCT116) cells; assay: MTT assay, HCT116 cells; assay type: cell-based; conditions: Homo sapiens, HCT-116, read-out: IC50 Values (Mean ± SD; n = 3)
Method: as §1

SMILES: CCCCCC1CC(CCc2ccc(O)c(OC)c2)=NN1c1ccc(OC)cc1 (centres unmarked) [Compound 5d, 2-methoxy-4-(2-(1-(4-methoxyphenyl)-5-pentyl-4,5-dihydro-1H-pyrazol-3-yl)ethyl) phenol]
- %HDAC Inhibition [1]: 67%

SMILES: CCCCCC1CC(CCc2ccc(O)c(OC)c2)=NN1c1ccc(F)cc1 (centres unmarked) [Compound 5f, 4-(2-(1-(4-fluorophenyl)-5-pentyl-4,5-dihydro-1H-pyrazol-3-yl)ethyl)-2-methoxyphenol]
- %HDAC Inhibition [1]: 77%

SMILES: CCCCCC1CC(CCc2ccc(O)c(OC)c2)=NN1c1cccc(Cl)c1 (centres unmarked) [Compound 5g, 4-(2-(1-(3-chlorophenyl)-5-pentyl-4,5-dihydro-1H-pyrazol-3-yl)ethyl)-2-methoxyphenol]
- %HDAC Inhibition [1]: 60%

SMILES: CCCCCC1CC(CCc2ccc(O)c(OC)c2)=NN1c1ccc(Cl)cc1 (centres unmarked) [Compound 5h, 4-(2-(1-(4-chlorophenyl)-5-pentyl-4,5-dihydro-1H-pyrazol-3-yl)ethyl)-2-methoxyphenol]
- %HDAC Inhibition [1]: 68%

SMILES: CCCCCC1CC(CCc2ccc(O)c(OC)c2)=NN1c1cccc([N+](=O)[O-])c1 (centres unmarked) [Compound 5i, 2-methoxy-4-(2-(1-(3-nitrophenyl)-5-pentyl-4,5-dihydro-1H-pyrazol-3-yl)ethyl)phe nol]
- %HDAC Inhibition [1]: 77%

SMILES: CCCCCC1CC(CCc2ccc(O)c(OC)c2)=NN1c1ccc([N+](=O)[O-])cc1 (centres unmarked) [Compound 5j, 2-methoxy-4-(2-(1-(4-nitrophenyl)-5-pentyl-4,5-dihydro-1H-pyrazol-3-yl)ethyl)phe nol]
- IC50 ([2]; 24 h): 23.9 ± 0.85 µM
- IC50 ([2]; 48 h): 19.3 ± 0.9 µM
- IC50 ([2]; 72 h): 13.8 ± 0.16 µM
- IC50 ([3]; 24 h): 41.6 ± 2.99 µM
- IC50 ([3]; 48 h): 32.2 ± 1.31 µM
- IC50 ([3]; 72 h): 26.1 ± 0.47 µM
- %HDAC Inhibition [1]: 85%
- IC50 ([4]; 24 h): 27.2 ± 0.59 µM
- IC50 ([4]; 48 h): 22.4 ± 0.65 µM
- IC50 ([4]; 72 h): 17.45 ± 0.14 µM
- IC50 ([5]; 24 h): 27.9 ± 0.86 µM
- IC50 ([5]; 48 h): 13.8 ± 0.56 µM
- IC50 ([5]; 72 h): 11.6 ± 0.44 µM
- IC50 ([6]; 24 h): 26.8 ± 0.62 µM
- IC50 ([6]; 48 h): 11.6 ± 0.6 µM
- IC50 ([6]; 72 h): 8.09 ± 0.03 µM
- IC50 ([7]; 24 h): 44.1 ± 0.89 µM
- IC50 ([7]; 48 h): 34.6 ± 0.41 µM
- IC50 ([7]; 72 h): 26.4 ± 0.43 µM
- IC50 ([8]; 24 h): 42.7 ± 2.23 µM
- IC50 ([8]; 48 h): 10.2 ± 0.43 µM
- IC50 ([8]; 72 h): 9.65 ± 0.17 µM

SMILES: CC(/C=C/C(=O)NO)=C\[C@@H](C)C(=O)c1ccc(N(C)C)cc1 [TSA, Trichostatin A, reference compound]
- %HDAC Inhibition [1]: 92%

Other lines, results leading:

- %HDAC Inhibition [1]: 56%
SMILES: CCCCCC1CC(CCc2ccc(O)c(OC)c2)=NN1c1ccccc1C (centres unmarked) [Compound 5b, 2-methoxy-4-(2-(5-pentyl-1-(o-tolyl)-4,5-dihydro-1H-pyrazol-3-yl)ethyl)phenol]

- %HDAC Inhibition [1]: 52%
SMILES: CCCCCC1CC(CCc2ccc(O)c(OC)c2)=NN1c1ccccc1OC (centres unmarked) [Compound 5c, 2-methoxy-4-(2-(1-(2-methoxyphenyl)-5-pentyl-4,5-dihydro-1H-pyrazol-3-yl)ethyl) phenol]

- %HDAC Inhibition [1]: 54%
SMILES: CCCCCC1CC(CCc2ccc(O)c(OC)c2)=NN1c1ccccc1F (centres unmarked) [Compound 5e, 4-(2-(1-(2-fluorophenyl)-5-pentyl-4,5-dihydro-1H-pyrazol-3-yl)ethyl)-2-methoxyphenol]

- %HDAC Inhibition [1]: 63%
SMILES: CCCCCC1CC(CCc2ccc(O)c(OC)c2)=Nc2ccccc2N1 (centres unmarked) [Compound 7, 2-Methoxy-4-(2-(2-pentyl-2,3-dihydro-1H-benzo[b][1,4]diazepin-4-yl)ethyl)phenol]

— paper PMC9144829, “Histone Deacetylase Inhibitory Activity and Antiproliferative Potential of New [6]-Shogaol Derivatives” (Molecules, 2022)
